According to patent US20040127468A1, “Methods and compositions for treating apoptosis associated disorders” (priority 2001, published 2004):

Columns and labels:
[1] = tested on: NGF differentiated PC12 cells; assay: Nuclei with chromatin condensation (YOYO-1 staining) in NGF differentiated PC12 cells; format: cell-based
Method: PC12 cells (ATCC, Manassas, Md.) were propagated in minimum essential medium (MEM) containing 10% horse serum, 5% fetal bovine serum, 2 mM L-glutamine, 50 units/ml penicillin, and 50 μg/ml streptomycin (MEM with serum, MIS), all purchased from Life Technologies (Rockville, Md.). The cells were grown on 24 well plates (8×10^4 cells/well) for counting of intact nuclei as an estimate of survival, poly-L-lysine treated coverslips (1×10^4 cells/coverslip) for imaging with epiflorescence microscopy or laser confocal scanning microscopy (LCSM) or 100 mm dishes (1×10^6 cells/plate) for protein chemistry. The cells were differentiated for 6 days in M/S supplemented with 100 ng/ml 7S NGF (Upstate Biotech., Lake Placid, N.Y.). MEM with serum and NGF is abbreviated as M/S+N (see (Tatton et al., 1994, J. Neurochemistry, 63:1572-1575; Wadia et al., J. Neuroscience, 1998, 18: 932-947; Carlile et al., 2000, Molecular Pharmacology, 57:2-12) for further details of culture and treatment). […]
(§1) Percentages of cells with apoptotic nuclei were determined for cells grown on poly-L-lysine treated coverslips (density 1×10^4/coverslip). […] The total number of YOYO-1 stained nuclei with chromatin condensation were counted on twenty-five 40× fields for each coverslip, each field chosen by pairs of randomly-generated x-y coordinates. The proportion of nuclei with chromatin condensation were expressed as a percentage of the total number of cells in each field. […]
(§2) The capacity of phosphatidic acid to increase survival, decrease apoptosis and maintain mitochondrial membrane potential was determined by counting intact nuclei as an indicator of cell survival, determining the percentages of cells with nuclear chromatin (DNA) condensation by staining cells with YOYO-1, a nucleic acid binding dye, and measuring mitochondrial potentiometric dye fluorescence by imaging them with florescence microscopy.

[2] = tested on: NGF differentiated PC12 cells; assay: Mitochondrial membrane potential by potentiometric dye fluorescence (TMRM, CMTMR) in NGF differentiated PC12 cells; format: cell-based
Method: Live cell ΔψM measurement: Cells on polylysine coated coverglass were incubated with 100 nM tetramethylrodaminemethylester (TMRM, Molecular probes, Eugene, Oreg.) or 10 μg/ml JC-1 (Molecular Probes, Eugene, Oreg.) to provide an estimate of ΔψM. The coverslips were transferred to a gas and temperature controlled circulating live cell chamber (Medical Systems Corp., Greenvale, N.Y.). A thermocoupler immersed in the medium maintained the media temperature at 37±0.1° C. TMRM, JC-1 and chloromethyltetramethylrosamine (CMTMR, Molecular probes, Eugene, Oreg.) and JC-1 stained cells were imaged 10 minutes following dye addition and images were collected every 3 minutes for approximately 20 minutes.
Fixed cell ΔψM Measurement. After treatment of NGF differentiated PC12 cells on poly-L-lysine coated 12 mm coverslips, the fixable potentiometric dye, CMTMR, was added at 137 nM for 15 minutes at 37° C. and simultaneous immunocytochemistry was performed. The cells were then rinsed once with warm Dulbecco's PBS prior to overnight fixation with ice cold 4% paraformaldehyde in PB and mounted onto slides with the aqueous mounting medium, Aquamount (Gallard-Schlesinger Ind., Garden City, N.Y.).
Florescence Microscopy. Images were obtained using a Leica TCS4D confocal microscope coupled to an argon-krypton laser or a standard epi-floresence microscope. The images were scanned or imaged using an oil immersion 100×1.4 N.A. objective to minimize focal depth. CMTMR and TMRM treated cells were imaged using 568 nm excitation and detected with 600/30 nm band pass filter. The JC-1 incubated cells were imaged using 488 nm excitation and detected using 530/30 nm band pass and 590 nm long pass filters observed by separate detectors. Image resolution was 512×512×8 bits per pixel. […] To measure the intensity of mitochondrial potentiometric dye fluorescence, pixel intensity measurements from 20-40 mitochondria from each of 50-70 cells per treatment, per experiment were obtained by placing a 3×3 pixel box at 2 points in each mitochondrion. The fluorescence intensity values were automatically exported to an Excel spreadsheet for subsequent analysis in MicroCal Origin (Northampton, Mass.). […]
as §2

[3] = tested on: cerebellar granule neurons; assay: Nuclei with chromatin condensation (YOYO-1 staining) in cerebellar granule neurons after glutamate; format: cell-based, rat; conditions: apoptosis initiating insult: Glutamate
Method: (§3) Cerebellar granule neurons were obtained from postnatal day 7 rat pups by enzymatic digestion and maintained in serum supplemented Eagle's Basal medium. Viable cells were plated at a density of 500,000 cells/ml onto poly-L-lysine coated tissue culture plastic or glass coverslips. Cytosine arabinoside (Ara-C) (10 μM) was added at 24 hours to halt glial proliferation. To induce apoptosis in the cerebellar granule neurons, 10^−4 to 10^−6 M glutamate was added on day 7 to the culture.
as §1, §2

[4] = tested on: NGF differentiated PC12 cells; assay: Survival of NGF differentiated PC12 cells after apoptosis initiating insult (counting intact nuclei); format: cell-based
Method: PC12 cells (ATCC, Manassas, Md.) were propagated in minimum essential medium (MEM) containing 10% horse serum, 5% fetal bovine serum, 2 mM L-glutamine, 50 units/ml penicillin, and 50 μg/ml streptomycin (MEM with serum, MIS), all purchased from Life Technologies (Rockville, Md.). The cells were grown on 24 well plates (8×10^4 cells/well) for counting of intact nuclei as an estimate of survival, poly-L-lysine treated coverslips (1×10^4 cells/coverslip) for imaging with epiflorescence microscopy or laser confocal scanning microscopy (LCSM) or 100 mm dishes (1×10^6 cells/plate) for protein chemistry. The cells were differentiated for 6 days in M/S supplemented with 100 ng/ml 7S NGF (Upstate Biotech., Lake Placid, N.Y.). MEM with serum and NGF is abbreviated as M/S+N (see (Tatton et al., 1994, J. Neurochemistry, 63:1572-1575; Wadia et al., J. Neuroscience, 1998, 18: 932-947; Carlile et al., 2000, Molecular Pharmacology, 57:2-12) for further details of culture and treatment). Serum and NGF Withdrawal: Following incubation for 6 days in MEM with serum and NGF, cells underwent three successive washes in Hanks' Balanced Salt Solution (HBSS; Life Technologies, Rockville, Md.) to remove NGF and serum-borne trophic agents and then were replaced into MEM with serum and NGF for controls or into MEM without serum and NGF to induce apoptosis by serum and NGF withdrawal. C2-Ceramide, Rotenone, Peroxide, and Atractyloside Exposure: After 6 days of exposure to serum and NGF, cultures maintained in MEM with serum and NGF were treated for 24 hours with either vehicle (HBSS) as a control, or concentrations of C2-ceramide in HBSS varying from 2 to 50 μM, concentrations of rotenone in BSS varying from 2 to 50 nM, concentrations of H2O2 in HBSS varying from 0.01 to 0.25 mM H2O2 or concentrations of atractyloside in HBSS varying from 2 to 20 mM. Both cell survival and the percentages of cells with evidence of apoptotic nuclear degradation were assessed for all treatments. To estimate survival, the cells were seeded at a density of 8×10^4 cells/well in 24 well plates. Cells were harvested 24 hours after treatment and lysed. Intact nuclei were counted using a hemocytometer (see see (Tatton et al., 1994, J. Neurochemistry, 63:1572-1575; Wadia et al., J. Neuroscience, 1998, 18: 932-947; Carlile et al., 2000, Molecular Pharmacology, 57:2-12) for details of treatment and counting methods). The capacity of phosphatidic acid to increase survival, decrease apoptosis and maintain mitochondrial membrane potential was determined by counting intact nuclei as an indicator of cell survival, determining the percentages of cells with nuclear chromatin (DNA) condensation by staining cells with YOYO-1, a nucleic acid binding dye, and measuring mitochondrial potentiometric dye fluorescence by imaging them with florescence microscopy.

[5] = tested on: cerebellar granule neurons; assay: Survival of cerebellar granule neurons after glutamate (counting intact nuclei); format: cell-based, rat; conditions: apoptosis initiating insult: Glutamate
Method: as §3
Both cell survival and the percentages of cells with evidence of apoptotic nuclear degradation were assessed for all treatments. […] Intact nuclei were counted using a hemocytometer (see see (Tatton et al., 1994, J. Neurochemistry, 63:1572-1575; Wadia et al., J. Neuroscience, 1998, 18: 932-947; Carlile et al., 2000, Molecular Pharmacology, 57:2-12) for details of treatment and counting methods).
as §2

[6] = apoptosis initiating insult: Serum and NGF Withdrawal

## phosphatidic acid [PA]
[1]; apoptosis initiating insult: Ceramide
  PA Decreases Nuclei With Chromatin Condensation: Yes
[1]; apoptosis initiating insult: Rotenone
  PA Decreases Nuclei With Chromatin Condensation: Yes
[1]; [6]
  PA Decreases Nuclei With Chromatin Condensation: Yes
[2]; apoptosis initiating insult: Ceramide, dyes TMRM and CMTMR, listed as phosphatidic acid
  PA Reduces Decreases In Mitochondrial Membrane Potential: reduces
[2]; apoptosis initiating insult: Rotenone, dyes TMRM and CMTMR
  PA Reduces Decreases In Mitochondrial Membrane Potential: Yes - FIG. 4C
[2]; apoptosis initiating insult: Rotenone, dyes TMRM and CMTMR, listed as phosphatidic acid
  PA Reduces Decreases In Mitochondrial Membrane Potential: reduces
[2]; [6]
  PA Reduces Decreases In Mitochondrial Membrane Potential: Yes
[3]
  PA Decreases Nuclei With Chromatin Condensation: Yes
[4]; after exposure to 0.1 mM H2O2 which kills about 60% of the cells (FIG. 3C)
  increase of cell survival by varying concentrations of phosphatidic acid: does not substantially increase
[4]; apoptosis initiated by peroxide or atractyloside, 2 to 30 μM PA
  PA reduced apoptosis: not
[4]; apoptosis initiating insult: Atractyloside, 24 hours
  PA Increases Survival: No
[4]; apoptosis initiating insult: Ceramide (C2-ceramide), 24 hours
  PA Increases Survival: Yes - FIG. 2A
[4]; apoptosis initiating insult: Ceramide (C2-ceramide), 24 hours, listed as Phosphatidic acid
  PA Increases Survival: increase cell survival
[4]; apoptosis initiating insult: Peroxide (H2O2), 24 hours, listed as phosphatidic acid
  PA Increases Survival: does not alter survival
[4]; apoptosis initiating insult: Rotenone, 24 hours, listed as Phosphatidic acid
  PA Increases Survival: increase cell survival
[4]; [6]
  PA Increases Survival: Yes - FIG. 3B
[4]; apoptosis initiating insult: Serum and NGF Withdrawal, listed as Phosphatidic acid
  PA Increases Survival: increase cell survival
[5]
  PA Increases Survival: Yes
[5]; listed as Phosphatidic acid
  PA Increases Survival: increase cell survival
